In brackets after ≈: the same amount, converted by molar mass. Marks after values point to notes of the source that are not given here.

Data set [1] in a line: eLogD shake-flask method. The format is physicochemical. The text has this: (§1) Human liver microsome stability, rat hepatocyte stability, aqueous solubility and eLogD are platform assays conducted by TCG Lifesciences and undertaken using previously described protocols.[10]
A short description of data set [2]: Human liver microsome stability. It is filed as in vitro ADME. The conditions noted are these: human liver microsomes; for microsomal CLint: read-out: HLM CLint.
Excerpt: as §1

Data set [3] in a line: Rat hepatocyte stability. The conditions noted are these: rat hepatocytes; for hepatocyte CLint: read-out: Rat Hep CLint. The format is in vitro ADME.
Excerpt: as §1

Data set [4] in a line: Aqueous solubility (pH 7.4). The format is physicochemical.
Excerpt: as §1

In data set [5] the test system is P. falciparum (Pf) 3D7 parasites. Kind of data set: P. falciparum LDH viability assay. The format is cell-based. The conditions noted are these: Plasmodium falciparum, 3D7, 72 h, LDH activity at 72 h; mean and SD of 3 independent experiments. The text has this: This assay is a platform assay conducted at the Walter and Eliza Hall Institute and uses a protocol previously decsribed.[30, 31]

A short description of data set [6]: Human HepG2 cytotoxicity assay (Cell Titre Glo). It is filed as cell-based. The conditions noted are these: HepG2 cells, growth inhibition at 48 h, 4 replicate experiments, read-out: HepG2 CC50 (SD). The source says: This assay uses Cell TitreGlo as a metabolic maker for human HepG2 cell growth and uses a protocol previously described.[32]
Where [7] appears, read: aqueous medium (pH 7.4; buffer not named), pH 7.4, aqueous buffer.
Setting [8] is: aqueous medium at pH 7.4 (buffer not named), pH 7.4, aqueous buffer.

Regarding “7‐Chloro‐N‐(5‐chloropyridin‐3‐yl)‐3‐methyl‐2‐(3‐(4‐methylpiperazin‐1‐yl)‐3‐oxopropyl)‐4‐oxo‐1,2,3,4‐tetrahydroquinazoline‐2‐carboxamide [Compound 23]”, the eLogD in data set [1] was 2.8^[d]. The “HLM CLint” value in data set [2] was determined as 155 µL/min/mg. The “Rat Hep CLint” value in data set [3] amounted to 16 μL/min/10^6 cells. Also, in data set [4] (pH 7.4), the solubility – broadly, the concentration that dissolves in the medium under given conditions – is 9.6 µM.
Take “7‐Chloro‐N‐(5‐chloropyridin‐3‐yl)‐3‐methyl‐2‐(3‐morpholino‐3‐oxopropyl)‐4‐oxo‐1,2,3,4‐tetrahydroquinazoline‐2‐carboxamide [Compound 21]”: the “HLM CLint” value in data set [2] amounted to 95 µL/min/mg. Further, the “Rat Hep CLint” value in data set [3] came to 23 μL/min/10^6 cells. This molecule displayed a solubility in data set [4] (pH 7.4) of 41 µM.
With “7‐Chloro‐N‐(5‐chloropyridin‐3‐yl)‐3‐methyl‐4‐oxo‐2‐(3‐oxo‐3‐(piperazin‐1‐yl)propyl)‐1,2,3,4‐tetrahydroquinazoline‐2‐carboxamide [Compound 22]”, the eLogD in data set [1] is 1.7^[d]. Moreover, the “HLM CLint” value in data set [2] came to 94 µL/min/mg. The “Rat Hep CLint” value in data set [3] amounted to 7.7 μL/min/10^6 cells. This molecule gave a solubility in data set [4] (pH 7.4) of 178 µM.
With `CN1C(=O)c2ccc(Cl)cc2N(C)C1(C)C(=O)Nc1cccc(Cl)c1` (centres unmarked) [Compound 12, 7‐Chloro‐N‐(3‐chlorophenyl)‐1,2,3‐trimethyl‐4‐oxo‐1,2,3,4‐tetrahydroquinazoline‐2‐carboxamide], a half-maximal response in data set [5] (EC50) required 115 nM. In addition, the CC50 (commonly the concentration giving 50% cytotoxicity) at 48 h in data set [6] was > 40000 nM. The eLogD in data set [1] was 3.9^[d]. The microsomal CLint in data set [2] is 122 µL/min/mg. In addition, in data set [3], the hepatocyte CLint came out at 124 µL/min/1e6 cells. Also, the solubility was 2.6 µM (≈ 0.983 µg/mL) in data set [4] (setting [7]) and < 5.2 µM in data set [4] (setting [8]).
Regarding `CCN1c2cc(Cl)ccc2C(=O)N(C)C1(C)C(=O)Nc1cccc(Cl)c1` (centres unmarked) [Compound 13, 7‐Chloro‐N‐(3‐chlorophenyl)‐1‐ethyl‐2,3‐dimethyl‐4‐oxo‐1,2,3,4‐tetrahydroquinazoline‐2‐carboxamide], it took 53 nM to reach a half-maximal effect in data set [5] (EC50). In data set [6], the 50% cytotoxic concentration (CC50) at 48 h is > 40000 nM.
Consider `CN1C(=O)c2ccc(Cl)cc2N(C)C1(C)C(=O)Nc1cncc(Cl)c1` (centres unmarked) [Compound 15, 7‐Chloro‐N‐(5‐chloropyridin‐3‐yl)‐1,2,3‐trimethyl‐4‐oxo‐1,2,3,4‐tetrahydroquinazoline‐2‐carboxamide], for which the EC50 (in general, the concentration that produces a half-maximal response) in data set [5] came out at 47 nM. Further, the CC50 at 48 h in data set [6] was > 40000 nM.
Molecule `CC1(C(=O)Nc2cncc(Cl)c2)Nc2cc(Cl)ccc2C(=O)N1C1CC1` (centres unmarked) [Compound 16, 7‐Chloro‐N‐(5‐chloropyridin‐3‐yl)‐3‐cyclopropyl‐2‐methyl‐4‐oxo‐1,2,3,4‐tetrahydroquinazoline‐2‐carboxamide] displayed a 50% effective concentration (EC50) in data set [5] of 27 nM. Also, the cytotoxic concentration (CC50) at 48 h in data set [6] is > 40000 nM. Also, in data set [1], the eLogD was 3.3^[d]. Besides, the microsomal CLint in data set [2] came to 172 µL/min/mg. In addition, the hepatocyte CLint in data set [3] was determined as 33 µL/min/1e6 cells. In data set [4] (setting [7]), this molecule had a solubility of 7 µM (≈ 2.74 µg/mL).
Molecule `CN1c2cc(Cl)ccc2C(=O)N(C2CC2)C1(C)C(=O)Nc1cncc(Cl)c1` (centres unmarked) [Compound 17, 7‐Chloro‐N‐(5‐chloropyridin‐3‐yl)‐3‐cyclopropyl‐1,2‐dimethyl‐4‐oxo‐1,2,3,4‐tetrahydroquinazoline‐2‐carboxamide] registered an EC50 in data set [5] of 23 nM. The CC50 at 48 h in data set [6] was > 40000 nM. Besides, the eLogD in data set [1] was 3.2^[d]. In addition, in data set [2], the microsomal CLint was determined as 267 µL/min/mg. In addition, in data set [3], the hepatocyte CLint worked out at 47 µL/min/1e6 cells. The same molecule had a solubility in data set [4] (setting [7]) of 28 µM (≈ 11.3 µg/mL).
Turning to `CN1C(=O)c2ccc(Cl)cc2N2CCCC12C(=O)Nc1cccc(Cl)c1` (centres unmarked) [Compound 18, 8‐Chloro‐N‐(3‐chlorophenyl)‐4‐methyl‐5‐oxo‐2,3,4,5‐tetrahydropyrrolo[1,2‐a]quinazoline‐3a(1H)‐carboxamide], the response in data set [5] was half-maximal at 30 nM (EC50). In data set [6], the half-maximal cytotoxic concentration (CC50) at 48 h was > 40000 nM.
Molecule `CN1C(=O)c2ccc(Cl)cc2NC1C(=O)Nc1cccc(Cl)c1` (centres unmarked) [Compound 19, 7‐Chloro‐N‐(3‐chlorophenyl)‐3‐methyl‐4‐oxo‐1,2,3,4‐tetrahydroquinazoline‐2‐carboxamide] displayed an EC50 in data set [5] of 80 nM. The 50% cytotoxic concentration (CC50) at 48 h in data set [6] is > 40000 nM.
For the molecule `CN1C(=O)c2ccc3cccnc3c2NC1(C)C(=O)Nc1cncc(Cl)c1` (centres unmarked) [Compound 25, N‐(5‐Chloropyridin‐3‐yl)‐2,3‐dimethyl‐4‐oxo‐1,2,3,4‐tetrahydropyrido[3,2‐h]quinazoline‐2‐carboxamide], it took 220 nM to reach a half-maximal effect in data set [5] (EC50). In addition, the cytotoxic concentration (CC50) at 48 h in data set [6] was > 40000 nM.
Take `CN1C(=O)c2ccc3ncccc3c2NC1(C)C(=O)Nc1cncc(Cl)c1` (centres unmarked) [Compound 26, N‐(5‐Chloropyridin‐3‐yl)‐2,3‐dimethyl‐4‐oxo‐1,2,3,4‐tetrahydropyrido[2,3‐h]quinazoline‐2‐carboxamide]: in data set [5], the EC50 turned out to be 90 nM. The 50% cytotoxic concentration (CC50) at 48 h in data set [6] is > 40000 nM.
In the case of `CC1(C(=O)Nc2cncc(Cl)c2)Nc2cc(Cl)ccc2-c2nccn21` (centres unmarked) [Compound 27, 8‐Chloro‐N‐(5‐chloropyridin‐3‐yl)‐5‐methyl‐5,6‐dihydroimidazo[1,2‐c]quinazoline‐5‐carboxamide], a half-maximal effect in data set [5] (EC50) was put at 54 nM. For the same molecule, in data set [6], the CC50 at 48 h is > 40000 nM. In data set [1], the logD (in general, the decadic logarithm of the distribution of all forms, ionised or not, between an organic phase and buffer at a given pH) was 2.7. Also, the microsomal CLint in data set [2] was 110 µL/min/mg. For the same molecule, the hepatocyte CLint in data set [3] is 59 µL/min/1e6 cells. Moreover, the solubility in data set [4] (setting [8]) was found to be 84 µM (≈ 31.4 µg/mL).
Regarding `CC1(C(=O)Nc2cncc(Cl)c2)Nc2cc(Cl)ccc2C2=NCCN21` (centres unmarked) [Compound 28, 8‐Chloro‐N‐(5‐chloropyridin‐3‐yl)‐5‐methyl‐2,3,5,6‐tetrahydroimidazo[1,2‐c]quinazoline‐5‐carboxamide], the pH-dependent lipophilicity (logD) in data set [1] is 2.5. The microsomal CLint in data set [2] amounted to 37 µL/min/mg. The hepatocyte CLint in data set [3] amounted to 8.8 µL/min/1e6 cells. For the same molecule, the solubility in data set [4] (setting [8]) is > 200 µM.
Regarding `CN1C(=O)c2ccc(-c3cccnc3)cc2NC1(C)C(=O)Nc1cncc(Cl)c1` (centres unmarked) [Compound 29, N‐(5‐Chloropyridin‐3‐yl)‐2,3‐dimethyl‐4‐oxo‐7‐(pyridin‐3‐yl)‐1,2,3,4‐tetrahydroquinazoline‐2‐carboxamide], a half-maximal effect in data set [5] (EC50) was put at 148 nM. Further, in data set [6], the CC50 at 48 h was > 40000 nM.
Molecule `COc1ccc(-c2ccc3c(c2)NC(C)(C(=O)Nc2cncc(Cl)c2)N(C)C3=O)cn1` (centres unmarked) [Compound 30, N‐(5‐Chloropyridin‐3‐yl)‐7‐(6‐methoxypyridin‐3‐yl)‐2,3‐dimethyl‐4‐oxo‐1,2,3,4‐tetrahydroquinazoline‐2‐carboxamide] came in with a 50% effective concentration (EC50) in data set [5] of 143 nM. Also, the 50% cytotoxic concentration (CC50) at 48 h in data set [6] was > 40000 nM.
For the molecule `CN1C(=O)c2ccc(-c3ccn(C)n3)cc2NC1(C)C(=O)Nc1cncc(Cl)c1` (centres unmarked) [Compound 31, N‐(5‐Chloropyridin‐3‐yl)‐2,3‐dimethyl‐7‐(1‐methyl‐1H‐pyrazol‐3‐yl)‐4‐oxo‐1,2,3,4‐tetrahydroquinazoline‐2‐carboxamide], in data set [5], the EC50 is 808 nM. The CC50 at 48 h in data set [6] is > 40000 nM.
As to `COc1ccc2c(c1)NC(C)(C(=O)Nc1cncc(Cl)c1)N(C)C2=O` (centres unmarked) [Compound 34, N‐(5‐Chloropyridin‐3‐yl)‐7‐methoxy‐2,3‐dimethyl‐4‐oxo‐1,2,3,4‐tetrahydroquinazoline‐2‐carboxamide], in data set [5], the midpoint of the response, the EC50, lay at 74 nM. Moreover, the logD in data set [1] turned out to be 2.7. For the same molecule, the microsomal CLint in data set [2] was determined as 35 µL/min/mg. The hepatocyte CLint in data set [3] was 16 µL/min/1e6 cells. This molecule also showed a solubility in data set [4] (aqueous medium at pH 7.4, pH 7.4, aqueous buffer) of 13.5 µM (≈ 4.87 µg/mL).
The molecule `COc1cnc2c(c1)NC(C)(C(=O)Nc1cncc(Cl)c1)N(C)C2=O` (centres unmarked) [Compound 35, N‐(5‐Chloropyridin‐3‐yl)‐7‐methoxy‐2,3‐dimethyl‐4‐oxo‐1,2,3,4‐tetrahydropyrido[3,2‐d]pyrimidine‐2‐carboxamide] registered an EC50 in data set [5] of 458 nM. Also, the CC50 at 48 h in data set [6] is > 40000 nM.

Values taken from paper PMC11648822, “Lactam Truncation Yields a Dihydroquinazolinone Scaffold with Potent Antimalarial Activity that Targets PfATP4” (Chemmedchem, 2024).
